Here are results for 9 compounds from ChEMBL document CHEMBL1124152, “Conformationally constrained renin inhibitory peptides: gamma-lactam-bridged dipeptide isostere as conformational restriction” (J Med Chem, 1988).

For one assay, the target named is T1, Renin (Homo sapiens, UniProt P00797).
T1 sequence (P00797 whole entry): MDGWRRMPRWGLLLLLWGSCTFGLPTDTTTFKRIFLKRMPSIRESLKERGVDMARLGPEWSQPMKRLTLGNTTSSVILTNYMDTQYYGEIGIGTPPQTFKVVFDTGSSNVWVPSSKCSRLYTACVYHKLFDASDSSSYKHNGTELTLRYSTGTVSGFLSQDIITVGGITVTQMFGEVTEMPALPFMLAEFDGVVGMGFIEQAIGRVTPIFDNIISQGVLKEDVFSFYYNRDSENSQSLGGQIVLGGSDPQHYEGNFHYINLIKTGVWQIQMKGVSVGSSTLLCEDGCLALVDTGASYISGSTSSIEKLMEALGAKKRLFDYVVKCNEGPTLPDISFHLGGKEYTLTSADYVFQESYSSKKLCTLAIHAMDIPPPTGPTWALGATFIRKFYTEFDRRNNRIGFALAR
The experiment in a line: Inhibitory activity against human plasma renin. Format: cell-free.

In the next assay the target is T2, Renin (Homo sapiens) (UniProt P00797).
T2 sequence (whole entry): T1 sequence (P00797 whole entry)
In words: Inhibitory activity against human plasma renin at 10e-5 M. Format: cell-free.

What is called IC50 is the point on the concentration scale where inhibition reaches its midpoint. In turn, `CCCC[C@H](NC(=O)CCc1ccccc1)C(=O)N[C@@H](CC(C)C)[C@@H](O)CC(=O)N[C@H](C(=O)NCc1ccccn1)[C@H](C)CC` registered an IC50 against Renin of 350 nM. On to `CCCC[C@H](NC(=O)CCc1ccccc1)C(=O)N[C@@H](CC(C)C)[C@@H](O)C[C@H](C(=O)N[C@H](C(=O)NCc1ccccn1)[C@H](C)CC)C(C)C`, for which the IC50 against Renin is 120 nM. Regarding `CCCC[C@H](NC(=O)[C@H](Cc1ccccc1)NC(=O)OCc1ccccc1)C(=O)N[C@@H](CC(C)C)[C@@H](O)C[C@H](C(=O)N[C@H](C(=O)NCc1ccccn1)[C@H](C)CC)C(C)C`, the IC50 on Renin is 26 nM. The same measure, in the same setting: as for `CCCC[C@@H](C(=O)N[C@@H](CC(C)C)[C@@H](O)C[C@H](C(=O)N[C@H](C(=O)NCc1ccccn1)[C@H](C)CC)C(C)C)N1CCC(Cc2ccccc2)(NC(=O)OCc2ccccc2)C1=O` (stereo in doubt; form 1), the figure is 6.5 nM; as for `CCCC[C@@H](C(=O)N[C@@H](CC(C)C)[C@@H](O)C[C@H](C(=O)N[C@H](C(=O)NCc1ccccn1)[C@@H](C)CC)C(C)C)N1CCC(Cc2ccccc2)C1=O` (stereo in doubt; form 1), 27 nM. A word on the inhibition: it is the percentage by which the read-out fell short of the control. Lower therefore signals a response near the control. `CCCC[C@@H](C(=O)N[C@@H](CC(C)C)[C@@H](O)CC(=O)N[C@H](C(=O)NCc1ccccn1)[C@H](C)CC)N1CCC(Cc2ccccc2)C1=O` (stereo in doubt; form 1) registered an inhibition against Renin (Homo sapiens) of 46%. In turn, `CCCC[C@@H](C(=O)N[C@@H](CC(C)C)[C@@H](O)C[C@H](C(=O)N[C@H](C(=O)NCc1ccccn1)[C@H](C)CC)C(C)C)N1CCC(Cc2ccccc2)(NC(=O)OCc2ccccc2)C1=O` (stereo in doubt; form 2) had an IC50 at Renin of 6.5 nM. Consider `CCCC[C@@H](C(=O)N[C@@H](CC(C)C)[C@@H](O)C[C@H](C(=O)N[C@H](C(=O)NCc1ccccn1)[C@@H](C)CC)C(C)C)N1CCC(Cc2ccccc2)C1=O` (stereo in doubt; form 2), for which, at Renin, the IC50 turned out to be 14 nM. Compound `CCCC[C@@H](C(=O)N[C@@H](CC(C)C)[C@@H](O)CC(=O)N[C@H](C(=O)NCc1ccccn1)[C@H](C)CC)N1CCC(Cc2ccccc2)C1=O` (stereo in doubt; form 2) had an inhibition against Renin (Homo sapiens) of 46%.
